Reference: the NIST ThermoML archive (doi:10.1016/j.jct.2016.07.005)
± gives the expanded uncertainty stated by the source.

Test: xn = mol fraction of the nth substance listed
Details: 100 kPa, Liquid; for viscosity: Concentric cylinders viscometry; for mass density: Vibrating tube method

CN1CCC[C@H]1c1cccnc1 [(-)-3-(N-methylpyrrolidino)pyridine] + CCCCO
Details	mass density [kg/m3]	viscosity [mPa·s]
293.15 K, x1 = 0.1	845.043 ± 1	3.049 ± 0.063
293.15 K, x1 = 0.196	874.098 ± 1	3.209 ± 0.066
293.15 K, x1 = 0.3	901.216 ± 1	3.408 ± 0.07
293.15 K, x1 = 0.3931	922.268 ± 1	3.601 ± 0.074
293.15 K, x1 = 0.5	943.285 ± 1	3.829 ± 0.079
293.15 K, x1 = 0.593	960.358 ± 1	4.027 ± 0.083
293.15 K, x1 = 0.7	975.308 ± 1	4.242 ± 0.088
293.15 K, x1 = 0.7931	987.593 ± 1	4.412 ± 0.092
293.15 K, x1 = 0.9	1000.01 ± 1	4.578 ± 0.096
293.15 K, x1 = 1	1010.23 ± 1	4.694 ± 0.098
298.15 K, x1 = 0.1	841.123 ± 1	2.692 ± 0.056
298.15 K, x1 = 0.196	870.112 ± 1	2.833 ± 0.058
298.15 K, x1 = 0.3	897.182 ± 1	2.999 ± 0.062
298.15 K, x1 = 0.3931	918.206 ± 1	3.155 ± 0.065
298.15 K, x1 = 0.5	939.205 ± 1	3.337 ± 0.069
298.15 K, x1 = 0.593	956.271 ± 1	3.494 ± 0.072
298.15 K, x1 = 0.7	971.222 ± 1	3.666 ± 0.076
298.15 K, x1 = 0.7931	983.509 ± 1	3.803 ± 0.079
298.15 K, x1 = 0.9	995.934 ± 1	3.942 ± 0.082
298.15 K, x1 = 1	1006.16 ± 1	4.048 ± 0.085
303.15 K, x1 = 0.1	837.185 ± 1	2.374 ± 0.049
303.15 K, x1 = 0.196	866.114 ± 1	2.498 ± 0.052
303.15 K, x1 = 0.3	893.14 ± 1	2.642 ± 0.055
303.15 K, x1 = 0.3931	914.139 ± 1	2.776 ± 0.058
303.15 K, x1 = 0.5	935.124 ± 1	2.931 ± 0.061
303.15 K, x1 = 0.593	952.186 ± 1	3.062 ± 0.064
303.15 K, x1 = 0.7	967.138 ± 1	3.205 ± 0.067
303.15 K, x1 = 0.7931	979.432 ± 1	3.319 ± 0.069
303.15 K, x1 = 0.9	991.866 ± 1	3.433 ± 0.072
303.15 K, x1 = 1	1002.1 ± 1	3.518 ± 0.074
308.15 K, x1 = 0.1	833.229 ± 1	2.105 ± 0.044
308.15 K, x1 = 0.196	862.102 ± 1	2.219 ± 0.046
308.15 K, x1 = 0.3	889.089 ± 1	2.346 ± 0.049
308.15 K, x1 = 0.3931	910.068 ± 1	2.461 ± 0.051
308.15 K, x1 = 0.5	931.041 ± 1	2.592 ± 0.054
308.15 K, x1 = 0.593	948.102 ± 1	2.702 ± 0.056
308.15 K, x1 = 0.7	963.059 ± 1	2.821 ± 0.059
308.15 K, x1 = 0.7931	975.36 ± 1	2.917 ± 0.061
308.15 K, x1 = 0.9	987.806 ± 1	3.013 ± 0.063
308.15 K, x1 = 1	998.055 ± 1	3.088 ± 0.065
313.15 K, x1 = 0.1	829.249 ± 1	1.885 ± 0.039
313.15 K, x1 = 0.196	858.073 ± 1	1.99 ± 0.041
313.15 K, x1 = 0.3	885.026 ± 1	2.103 ± 0.044
313.15 K, x1 = 0.3931	905.989 ± 1	2.203 ± 0.046
313.15 K, x1 = 0.5	926.955 ± 1	2.316 ± 0.048
313.15 K, x1 = 0.593	944.017 ± 1	2.41 ± 0.05
313.15 K, x1 = 0.7	958.981 ± 1	2.514 ± 0.053
313.15 K, x1 = 0.7931	971.292 ± 1	2.598 ± 0.054
313.15 K, x1 = 0.9	983.751 ± 1	2.686 ± 0.056
313.15 K, x1 = 1	994.014 ± 1	2.758 ± 0.058
318.15 K, x1 = 0.1	825.24 ± 1	1.683 ± 0.035
318.15 K, x1 = 0.196	854.022 ± 1	1.777 ± 0.037
318.15 K, x1 = 0.3	880.948 ± 1	1.88 ± 0.039
318.15 K, x1 = 0.3931	901.899 ± 1	1.97 ± 0.041
318.15 K, x1 = 0.5	922.862 ± 1	2.07 ± 0.043
318.15 K, x1 = 0.593	939.982 ± 1	2.152 ± 0.045
318.15 K, x1 = 0.7	954.903 ± 1	2.239 ± 0.047
318.15 K, x1 = 0.7931	967.226 ± 1	2.304 ± 0.048
318.15 K, x1 = 0.9	979.704 ± 1	2.367 ± 0.05
318.15 K, x1 = 1	989.984 ± 1	2.411 ± 0.051
323.15 K, x1 = 0.1	821.198 ± 1	1.495 ± 0.031
323.15 K, x1 = 0.196	849.946 ± 1	1.603 ± 0.033
323.15 K, x1 = 0.3	876.851 ± 1	1.708 ± 0.036
323.15 K, x1 = 0.3931	897.795 ± 1	1.793 ± 0.037
323.15 K, x1 = 0.5	918.759 ± 1	1.882 ± 0.039
323.15 K, x1 = 0.593	935.834 ± 1	1.952 ± 0.041
323.15 K, x1 = 0.7	950.822 ± 1	2.025 ± 0.042
323.15 K, x1 = 0.7931	963.162 ± 1	2.083 ± 0.044
323.15 K, x1 = 0.9	975.66 ± 1	2.143 ± 0.045
323.15 K, x1 = 1	985.962 ± 1	2.195 ± 0.046

CN1CCC[C@H]1c1cccnc1 [(-)-3-(N-methylpyrrolidino)pyridine] + OCCCO
Details	mass density [kg/m3]	viscosity [mPa·s]
293.15 K, x1 = 0.1	1049.36 ± 1.3	63.86 ± 1.4
293.15 K, x1 = 0.1999	1045.43 ± 1.2	63.55 ± 1.4
293.15 K, x1 = 0.3	1041.3 ± 1.2	55.97 ± 1.2
293.15 K, x1 = 0.3994	1037.05 ± 1.1	44.97 ± 0.98
293.15 K, x1 = 0.5	1032.67 ± 1.1	33.15 ± 0.72
293.15 K, x1 = 0.6004	1028.25 ± 1.1	22.75 ± 0.49
293.15 K, x1 = 0.7	1023.76 ± 1.1	14.91 ± 0.32
293.15 K, x1 = 0.8	1019.33 ± 1	9.805 ± 0.21
293.15 K, x1 = 0.9	1014.74 ± 1	6.894 ± 0.14
293.15 K, x1 = 1	1010.23 ± 1	4.694 ± 0.098
298.15 K, x1 = 0.1	1045.96 ± 1.3	48.97 ± 1.1
298.15 K, x1 = 0.1999	1041.83 ± 1.2	48.13 ± 1.1
298.15 K, x1 = 0.3	1037.55 ± 1.2	42.26 ± 0.93
298.15 K, x1 = 0.3994	1033.17 ± 1.1	34.05 ± 0.74
298.15 K, x1 = 0.5	1028.72 ± 1.1	25.35 ± 0.55
298.15 K, x1 = 0.6004	1024.24 ± 1.1	17.71 ± 0.38
298.15 K, x1 = 0.7	1019.71 ± 1.1	11.93 ± 0.25
298.15 K, x1 = 0.8	1015.26 ± 1	8.105 ± 0.17
298.15 K, x1 = 0.9	1010.67 ± 1	5.832 ± 0.12
298.15 K, x1 = 1	1006.16 ± 1	4.048 ± 0.085
303.15 K, x1 = 0.1	1042.55 ± 1.3	37.97 ± 0.85
303.15 K, x1 = 0.1999	1038.21 ± 1.2	36.9 ± 0.82
303.15 K, x1 = 0.3	1033.78 ± 1.2	32.31 ± 0.71
303.15 K, x1 = 0.3994	1029.3 ± 1.1	26.12 ± 0.57
303.15 K, x1 = 0.5	1024.77 ± 1.1	19.64 ± 0.42
303.15 K, x1 = 0.6004	1020.24 ± 1.1	13.95 ± 0.3
303.15 K, x1 = 0.7	1015.68 ± 1.1	9.624 ± 0.2
303.15 K, x1 = 0.8	1011.2 ± 1	6.722 ± 0.14
303.15 K, x1 = 0.9	1006.61 ± 1	4.943 ± 0.1
303.15 K, x1 = 1	1002.1 ± 1	3.518 ± 0.074
308.15 K, x1 = 0.1	1039.14 ± 1.3	29.84 ± 0.67
308.15 K, x1 = 0.1999	1034.59 ± 1.2	28.71 ± 0.64
308.15 K, x1 = 0.3	1030.01 ± 1.2	25.12 ± 0.55
308.15 K, x1 = 0.3994	1025.41 ± 1.1	20.41 ± 0.44
308.15 K, x1 = 0.5	1020.81 ± 1.1	15.5 ± 0.34
308.15 K, x1 = 0.6004	1016.23 ± 1.1	11.19 ± 0.24
308.15 K, x1 = 0.7	1011.64 ± 1.1	7.885 ± 0.17
308.15 K, x1 = 0.8	1007.15 ± 1	5.621 ± 0.12
308.15 K, x1 = 0.9	1002.55 ± 1	4.2 ± 0.088
308.15 K, x1 = 1	998.055 ± 1	3.088 ± 0.065
313.15 K, x1 = 0.1	1035.71 ± 1.3	23.69 ± 0.53
313.15 K, x1 = 0.1999	1030.96 ± 1.2	22.59 ± 0.5
313.15 K, x1 = 0.3	1026.23 ± 1.2	19.74 ± 0.43
313.15 K, x1 = 0.3994	1021.52 ± 1.1	16.11 ± 0.35
313.15 K, x1 = 0.5	1016.85 ± 1.1	12.36 ± 0.27
313.15 K, x1 = 0.6004	1012.22 ± 1.1	9.06 ± 0.19
313.15 K, x1 = 0.7	1007.6 ± 1.1	6.513 ± 0.14
313.15 K, x1 = 0.8	1003.09 ± 1	4.749 ± 0.1
313.15 K, x1 = 0.9	998.498 ± 1	3.625 ± 0.076
313.15 K, x1 = 1	994.014 ± 1	2.758 ± 0.058
318.15 K, x1 = 0.1	1032.27 ± 1.2	19.28 ± 0.43
318.15 K, x1 = 0.1999	1027.32 ± 1.2	18.26 ± 0.4
318.15 K, x1 = 0.3	1022.43 ± 1.2	15.95 ± 0.35
318.15 K, x1 = 0.3994	1017.62 ± 1.1	13.08 ± 0.28
318.15 K, x1 = 0.5	1012.88 ± 1.1	10.14 ± 0.22
318.15 K, x1 = 0.6004	1008.21 ± 1.1	7.559 ± 0.16
318.15 K, x1 = 0.7	1003.56 ± 1.1	5.549 ± 0.12
318.15 K, x1 = 0.8	999.04 ± 1	4.128 ± 0.088
318.15 K, x1 = 0.9	994.453 ± 1	3.18 ± 0.067
318.15 K, x1 = 1	989.984 ± 1	2.411 ± 0.051
323.15 K, x1 = 0.1	1028.82 ± 1.2	15.87 ± 0.35
323.15 K, x1 = 0.1999	1023.66 ± 1.2	14.94 ± 0.33
323.15 K, x1 = 0.3	1018.63 ± 1.2	13.05 ± 0.29
323.15 K, x1 = 0.3994	1013.72 ± 1.1	10.76 ± 0.23
323.15 K, x1 = 0.5	1008.9 ± 1.1	8.437 ± 0.18
323.15 K, x1 = 0.6004	1004.18 ± 1.1	6.389 ± 0.14
323.15 K, x1 = 0.7	999.506 ± 1.1	4.782 ± 0.1
323.15 K, x1 = 0.8	994.989 ± 1	3.625 ± 0.077
323.15 K, x1 = 0.9	990.406 ± 1	2.837 ± 0.06
323.15 K, x1 = 1	985.962 ± 1	2.195 ± 0.046
